Source: PMC6941357, “An in vitro toolbox to accelerate anti-malarial drug discovery and development” (Malaria Journal, 2020)

Key:
[1] = Plasma protein binding via rapid equilibrium dialysis (RED), 10% plasma; type: in vitro ADME, human; details: human, 10% pooled plasma (diluted 1:10), pH 7.4, RED, 10% plasma corrected for dilution; for fraction unbound at 6 h: 6 h dialysis; for fraction unbound at 24 h: presaturation of device and 24 h dialysis
Method: (§1) Pooled human plasma (n = 3–4 donors) was obtained by centrifugation of blood (collected by the Australian Red Cross Blood Service, Melbourne, Australia or the Volunteer Blood Donor Registry, Clinical Translation Centre, Walter & Eliza Hall Institute of Medical Research, Parkville, Australia), or sourcing pooled plasma directly from commercial sources (Innovative Research Inc, MI) and stored frozen at − 80 °C.
(§2) Plasma was diluted 1:10 with pH 7.4 phosphate buffer (prepared by mixing 0.1 M sodium dihydrogen phosphate and 0.1 M disodium hydrogen phosphate (both containing 0.04 M NaCl) to pH 7.4) and spiked with compound to achieve a total measured concentration of ~ 1000–3000 ng/mL. Diluted plasma was vortex mixed briefly and aliquots (n = 3–4) were transferred to RED (Thermo Fisher Scientific, Waltham, MA) units that were placed at 37 °C under ambient atmosphere on a plate shaker. […] At the end of the dialysis period, samples were removed from both the donor and dialysate chambers of the RED units. […] Fraction unbound values were calculated for each individual RED unit and the mean and SD calculated for n = 3–4 replicates.
(§3) Briefly, the RED device was exposed for two 30 min periods and one overnight period to fresh solutions of compound prepared in pH 7.4 buffer at approximately 10% of the total dialysis concentration. Following the preincubations, solutions were removed from the RED device and discarded. […] Samples were removed and analysed as described above.
(§4) For binding assessments using 10% plasma, the unbound fraction (fu) in neat plasma was calculated using the average values for Ctotal and Cunbound and Eq.

human plasma = assay: as above; type: in vitro ADME; details: RED, 10% plasma corrected for dilution, 6 h dialysis
Method: as §1, §2, §3, §4

[2] = Binding in DMEM with 10% FCS via ultracentrifugation; type: in vitro ADME, calf; details: bovine, DMEM with 10% FCS, pH 7.4
Method: Dulbecco’s Modified Eagle’s Medium (DMEM) containing GlutaMAX-I was purchased from Invitrogen (Thermo Fisher Scientific) and stored at 4 °C. Medium was prepared by adding heat inactivated foetal calf serum (FCS, final 10% v/v), penicillin (final 100 U/mL), streptomycin (final 100 µg/mL) D-glucose (final 4.0 mg/mL) and sodium pyruvate (final 0.1 mg/mL).
An ultracentrifugation method adapted from a previous publication was initially used to assess plasma protein binding and binding in the other media. […] Additional ultracentrifuge tubes containing spiked matrix were maintained at 37 °C, 5% or 10% CO2 or normal atmosphere conditions, with aliquots being taken within 0.5 h of the start and at the end of ultracentrifugation to serve as controls for the assessment of stability and to obtain a measure of the total concentration (Ctotal). Following ultracentrifugation, the pH was checked and an aliquot of protein-free supernate was taken from each ultracentrifuge tube for determination of the unbound concentration (Cunbound).
Total matrix and protein free samples were analysed using a matrix matching approach whereby each sample was mixed in a 1:1 ratio with the opposite blank medium (i.e. blank total matrix or blank protein free buffer). For example, plasma samples were mixed with blank pH 7.4 buffer whereas plasma supernatant samples were mixed with blank plasma. Each of the sample sets were then assayed against a common calibration curve prepared in a 1:1 mixture of total matrix and protein free pH 7.4 buffer. […] The standard deviation for fu was calculated using the propagation of errors approach as described previously. The potential for compound degradation was assessed by comparing the average value for Ctotal at the start and end of the experiment.

[3] = Blood to plasma partitioning; type: in vitro ADME, human; details: 37 °C; for blood plasma ratio at 1000 ng/mL: human, whole blood, pH 7.4, human whole blood, read-out: B/P (whole blood to plasma partitioning ratio)
Method: Human whole blood was collected and supplied by the Volunteer Blood Donor Registry (Clinical Translation Centre, Walter & Eliza Hall Institute of Medical Research, Parkville, Australia) and used on the day of collection. The haematocrit (Hct) was determined by centrifugation (13,000×g for 3 min using Clemets® Microhaematocrit centrifuge and Safecap® Plain Self-sealing Mylar wrapped capillary tubes) to ensure it was between 0.40 and 0.48. An aliquot was centrifuged (Heraeus, Multifuge 3 S-R; 4500×g) for 10 min to obtain plasma required for matrix matching purposes as described below.
Two aliquots of the spiked whole blood were transferred to fresh microcentrifuge tubes and maintained at 37 °C/5% CO2 in a humidified incubator. The pH was confirmed to be 7.4 ± 0.1 at the start and end of the incubation. At each time point (30 min and 4 h), one whole blood tube was removed from the incubator and mixed by gentle inversion, after which four replicate blood samples were taken and matrix matched with an equal volume of blank plasma. The remainder of the blood sample was centrifuged (Eppendorf, Mini Spin plus; 6700×g) for 2 min for the collection of 4 replicate plasma samples which were similarly matrix matched with an equal volume of blank whole blood. The 1:1 mixtures of blood/plasma were mixed, snap frozen in dry ice and stored at − 80 °C until analysis by LC–MS (Additional file 1: Table S2) against calibration standards prepared in the same mixed matrix. Any further distribution of compound into RBCs at this stage was irrelevant as the cells were lysed during the sample preparation and the total concentration in the mixed matrix was measured for both the calibration standards and samples.
The apparent whole blood-to-plasma partitioning ratio (B/P) was calculated as the ratio of the average concentration in the blood sample to that in the plasma fraction of the same whole blood sample. A standard deviation (SD) for each B/P value was calculated using the propagation of errors approach as described previously.

Caco-2 cell monolayers = details: cited from earlier work; for Literature Papp: Caco-2 A-B, ref [33]–[35] of Additional file 1; for A–B Papp / B–A Papp: matrix: human plasma, corrected for fu
human liver microsomes = assay: in vitro; details: human, 1 µM, pH 7.4
How it was run: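 Compound depletion in human liver microsomes was followed by LC–MS at 2–60 min, with cofactor-free controls. First-order depletion rate constants gave in vitro CLint (µL/min/mg protein), corrected to unbound CLint using measured microsomal fu.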

Row | Structure (SMILES) | fraction unbound at 6 h [1] | fraction unbound at 24 h [1] | blood plasma ratio at 1000 ng/mL [3] | further results
1 | CC[C@H]1OC(=O)[C@H](C)[C@@H](O[C@H]2C[C@@](C)(OC)[C@@H](O)[C@H](C)O2)[C@H](C)[C@@H](O[C@@H]2O[C@H](C)C[C@H](N(C)C)[C@H]2O)[C@](C)(O)C[C@@H](C)CN(C)[C@H](C)[C@@H](O)[C@]1(C)O [Azithromycin] | 0.34 |  |  | Fraction unbound, human plasma (human plasma): 0.35
2 | CS(=O)(=O)c1ccc(-c2cnc(N)c(-c3ccc(C(F)(F)F)nc3)c2)cc1 [MMV048] | 0.11 ± 0.007 |  |  | fraction unbound at […], 1000 ng/mL [2]: 0.653 ± 0.06
3 | Cc1cc(Nc2ccc(S(F)(F)(F)(F)F)cc2)n2nc(C(C)(F)F)nc2n1 [DSM265] | 0.002 | 0.0018 ± 0.0001 |  | fraction unbound at […], 1000 ng/mL [2]: 0.366 ± 0.041
4 | CO[C@H]1O[C@@H]2O[C@@]3(C)CC[C@H]4[C@H](C)CC[C@@H]([C@H]1C)[C@@]24OO3 [Artemether] |  | 0.066 |  | 
5 | C[C@H]1c2cccc(O)c2C(=O)C2=C(O)[C@]3(O)C(=O)C(C(N)=O)=C(O)[C@@H](N(C)C)[C@@H]3[C@@H](O)[C@@H]21 [Doxycyclin] | 0.23 ± 0.09 |  |  | fraction unbound at […], 1000 ng/mL [2]: 0.44 ± 0.07
6 | COc1ccc2nc3cc(Cl)ccc3c(Nc3cc(CN4CCCC4)c(O)c(CN4CCCC4)c3)c2n1 [Pyronaridine] | 0.09 ± 0.012 |  | 9 ± 0.83 | Literature ER (Caco-2 cell monolayers; Caco-2, ref [33], [35] of Additional file 1): 1.8; Literature Papp (Caco-2 cell monolayers): 10.3 ± 0.3 10-6 cm/sec
7 | C[C@H]1[C@@H](O)O[C@@H]2O[C@@]3(C)CC[C@H]4[C@H](C)CC[C@@H]1[C@@]24OO3 [Dihydroartemisinin] |  |  |  | Literature Papp (Caco-2 cell monolayers): 38.6 ± 5.0 10-6 cm/sec
8 | CC(C)NC(=N)NC(=N)Nc1ccc(Cl)c(Cl)c1 [Chlorproguanil] |  |  | > 3 | B/P (whole blood to plasma partitioning ratio) ([3]; human whole blood): 3.3 ± 0.38
9 | CCCCN(CCCC)CCC(O)c1cc2c(Cl)cc(Cl)cc2c2cc(C(F)(F)F)ccc12 (stereo not shown) [Halofantrine] |  | < 0.0001 |  | Unbound CLint (human liver microsomes): 13,500 µL/min/mg; A–B Papp (Caco-2 cell monolayers): > 300 10^−6 cm/s; B–A Papp (Caco-2 cell monolayers): > 300 10^−6 cm/s
10 | N#Cc1cc(NC(=O)[C@H]2c3ccccc3C(=O)N(CC(F)(F)F)[C@@H]2c2cccnc2)ccc1F [SJ733] | 0.1 | 0.085 ± 0.012 |  | 
11 | CCCCN(CCCC)CC(O)c1cc(Cl)cc2c1-c1ccc(Cl)cc1/C2=C/c1ccc(Cl)cc1 (stereo not shown) [Lumefantrine] | < 0.0001 | < 0.0001 | 0.48 ± 0.09 | 
12 | C[C@H]1Cc2c([nH]c3cc(Cl)c(F)cc23)[C@@]2(N1)C(=O)Nc1ccc(Cl)cc12 [KAE609] | 0.002 | 0.0016 ± 0.0001 | 0.66 ± 0.04 | 
13 | Clc1ccc2c(N3CCN(CCCN4CCN(c5ccnc6cc(Cl)ccc56)CC4)CC3)ccnc2c1 [Piperaquine] |  | 0.0003 ± 0.0001 | 0.57 ± 0.05 | fraction unbound at […], 1000 ng/mL [2]: 0.092 ± 0.003; A–B Papp (Caco-2 cell monolayers): > 300 10^−6 cm/s; B–A Papp (Caco-2 cell monolayers): > 300 10^−6 cm/s
14 | O=C1C(O)=C([C@H]2CC[C@H](c3ccc(Cl)cc3)CC2)C(=O)c2ccccc21 [Atovaquone] |  | < 0.0001 |  | A–B Papp (Caco-2 cell monolayers): > 300 10^−6 cm/s; B–A Papp (Caco-2 cell monolayers): > 300 10^−6 cm/s
